Test results as given in paper PMC6437697 (Journal of Medicinal Chemistry, 2019).

Assays:
Experiment in all cases: KINOMEscan
Assay type in all cases: binding
Conditions in all cases: read-out: % control activity remaining
MARK3 = molecular target: T1, MARK3 (Homo sapiens, UniProt P27448)
T1 construct: purchased Eurofins DiscoverX KINOMEscan

EPHB6 = molecular target: T2, EPHB6 (Homo sapiens, UniProt O15197)
T2 construct: purchased Eurofins DiscoverX KINOMEscan
T2 sequence (O15197 32-1021): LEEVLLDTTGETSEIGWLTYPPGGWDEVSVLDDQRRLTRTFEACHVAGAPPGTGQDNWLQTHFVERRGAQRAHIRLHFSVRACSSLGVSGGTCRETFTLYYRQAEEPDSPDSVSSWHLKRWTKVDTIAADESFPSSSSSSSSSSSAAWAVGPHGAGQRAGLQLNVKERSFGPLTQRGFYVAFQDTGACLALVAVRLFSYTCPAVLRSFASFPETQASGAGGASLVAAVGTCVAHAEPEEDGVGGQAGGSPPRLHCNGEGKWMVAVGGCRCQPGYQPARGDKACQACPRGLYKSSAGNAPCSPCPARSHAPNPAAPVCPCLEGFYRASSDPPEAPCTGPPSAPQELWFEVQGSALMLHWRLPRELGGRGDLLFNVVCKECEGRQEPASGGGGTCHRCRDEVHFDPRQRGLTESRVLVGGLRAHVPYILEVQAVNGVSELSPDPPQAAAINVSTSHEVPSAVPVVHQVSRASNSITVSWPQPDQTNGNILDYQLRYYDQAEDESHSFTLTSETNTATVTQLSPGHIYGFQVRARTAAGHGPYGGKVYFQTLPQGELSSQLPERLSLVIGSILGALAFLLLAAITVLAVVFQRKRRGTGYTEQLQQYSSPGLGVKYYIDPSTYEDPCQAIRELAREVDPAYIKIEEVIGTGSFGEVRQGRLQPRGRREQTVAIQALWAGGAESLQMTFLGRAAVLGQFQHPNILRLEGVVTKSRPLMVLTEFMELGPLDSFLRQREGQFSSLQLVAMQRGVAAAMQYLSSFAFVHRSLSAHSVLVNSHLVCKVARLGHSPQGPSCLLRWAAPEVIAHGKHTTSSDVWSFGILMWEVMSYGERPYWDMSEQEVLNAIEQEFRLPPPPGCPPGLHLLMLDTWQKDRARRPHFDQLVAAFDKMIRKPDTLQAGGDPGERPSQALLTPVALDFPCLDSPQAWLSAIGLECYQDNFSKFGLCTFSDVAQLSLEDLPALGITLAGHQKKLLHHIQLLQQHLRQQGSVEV

MST1R = molecular target: T3, MST1R (Homo sapiens, UniProt Q04912)
T3 construct: purchased Eurofins DiscoverX KINOMEscan
T3 sequence (Q04912 25-1400): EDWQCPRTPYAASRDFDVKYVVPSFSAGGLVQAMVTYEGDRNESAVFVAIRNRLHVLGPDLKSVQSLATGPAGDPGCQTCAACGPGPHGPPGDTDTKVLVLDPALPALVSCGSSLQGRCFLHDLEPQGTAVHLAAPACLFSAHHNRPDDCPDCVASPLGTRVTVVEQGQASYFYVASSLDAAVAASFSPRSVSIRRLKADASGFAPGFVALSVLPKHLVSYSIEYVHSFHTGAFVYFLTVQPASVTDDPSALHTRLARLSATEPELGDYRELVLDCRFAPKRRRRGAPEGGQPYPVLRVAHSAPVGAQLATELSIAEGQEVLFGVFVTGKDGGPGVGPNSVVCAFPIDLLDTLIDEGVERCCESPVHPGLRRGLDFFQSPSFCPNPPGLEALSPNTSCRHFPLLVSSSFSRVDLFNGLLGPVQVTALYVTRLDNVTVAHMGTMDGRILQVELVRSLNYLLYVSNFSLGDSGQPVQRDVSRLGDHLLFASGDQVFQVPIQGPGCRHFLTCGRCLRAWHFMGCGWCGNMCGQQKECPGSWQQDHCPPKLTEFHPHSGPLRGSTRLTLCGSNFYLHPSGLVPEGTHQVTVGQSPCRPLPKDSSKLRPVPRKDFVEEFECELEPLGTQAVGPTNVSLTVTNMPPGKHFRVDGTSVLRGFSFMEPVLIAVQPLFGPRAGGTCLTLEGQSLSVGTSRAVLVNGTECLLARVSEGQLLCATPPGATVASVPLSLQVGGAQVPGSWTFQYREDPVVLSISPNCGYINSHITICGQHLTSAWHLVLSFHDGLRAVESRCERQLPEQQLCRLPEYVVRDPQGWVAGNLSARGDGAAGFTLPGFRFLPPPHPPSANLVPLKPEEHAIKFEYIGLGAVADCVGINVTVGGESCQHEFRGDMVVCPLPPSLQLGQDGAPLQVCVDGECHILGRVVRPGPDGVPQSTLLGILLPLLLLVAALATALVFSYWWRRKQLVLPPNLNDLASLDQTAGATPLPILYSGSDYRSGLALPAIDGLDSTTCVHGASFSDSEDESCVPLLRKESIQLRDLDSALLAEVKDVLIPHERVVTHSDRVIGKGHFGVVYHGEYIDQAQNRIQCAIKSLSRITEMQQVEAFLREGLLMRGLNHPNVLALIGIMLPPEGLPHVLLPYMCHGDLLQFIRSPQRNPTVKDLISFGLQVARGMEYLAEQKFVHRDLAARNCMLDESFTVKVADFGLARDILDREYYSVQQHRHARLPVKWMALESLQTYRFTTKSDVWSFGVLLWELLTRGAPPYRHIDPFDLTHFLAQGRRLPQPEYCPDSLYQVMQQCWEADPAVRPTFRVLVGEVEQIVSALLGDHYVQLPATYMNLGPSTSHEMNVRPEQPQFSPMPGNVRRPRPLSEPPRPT

EGFR(S752-I759del) = molecular target: T4, EGFR(S752-I759del) (Homo sapiens, UniProt P00533, DEL752-759)
T4 construct: purchased Eurofins DiscoverX KINOMEscan
T4 sequence (P00533 with tags, fused parts or gaps DEL752-759 limits assumed): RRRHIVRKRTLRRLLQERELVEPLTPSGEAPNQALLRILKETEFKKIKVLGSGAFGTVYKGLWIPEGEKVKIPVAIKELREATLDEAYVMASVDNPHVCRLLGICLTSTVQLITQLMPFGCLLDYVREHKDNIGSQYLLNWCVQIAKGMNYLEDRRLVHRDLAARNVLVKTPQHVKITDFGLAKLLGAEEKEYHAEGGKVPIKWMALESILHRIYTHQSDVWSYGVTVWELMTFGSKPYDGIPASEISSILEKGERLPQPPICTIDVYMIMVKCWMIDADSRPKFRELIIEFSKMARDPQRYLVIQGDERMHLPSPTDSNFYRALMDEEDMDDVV

DRAK2 = molecular target: T5, DRAK2 (Homo sapiens, UniProt O94768)
T5 construct: purchased Eurofins DiscoverX KINOMEscan
T5 sequence (O94768 1-372): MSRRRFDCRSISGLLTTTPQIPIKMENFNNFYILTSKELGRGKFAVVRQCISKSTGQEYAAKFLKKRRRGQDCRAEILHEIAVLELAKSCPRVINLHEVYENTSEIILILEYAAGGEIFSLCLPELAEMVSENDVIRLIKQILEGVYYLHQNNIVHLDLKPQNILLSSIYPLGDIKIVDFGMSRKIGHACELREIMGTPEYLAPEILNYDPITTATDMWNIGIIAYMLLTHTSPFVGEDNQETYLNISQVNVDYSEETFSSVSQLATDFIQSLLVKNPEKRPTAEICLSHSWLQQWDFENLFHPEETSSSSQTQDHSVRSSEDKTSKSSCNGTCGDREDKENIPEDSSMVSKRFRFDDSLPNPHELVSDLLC

NLK = molecular target: T6, NLK (Homo sapiens, UniProt Q9UBE8)
T6 construct: purchased Eurofins DiscoverX KINOMEscan
T6 sequence (Q9UBE8 1-527): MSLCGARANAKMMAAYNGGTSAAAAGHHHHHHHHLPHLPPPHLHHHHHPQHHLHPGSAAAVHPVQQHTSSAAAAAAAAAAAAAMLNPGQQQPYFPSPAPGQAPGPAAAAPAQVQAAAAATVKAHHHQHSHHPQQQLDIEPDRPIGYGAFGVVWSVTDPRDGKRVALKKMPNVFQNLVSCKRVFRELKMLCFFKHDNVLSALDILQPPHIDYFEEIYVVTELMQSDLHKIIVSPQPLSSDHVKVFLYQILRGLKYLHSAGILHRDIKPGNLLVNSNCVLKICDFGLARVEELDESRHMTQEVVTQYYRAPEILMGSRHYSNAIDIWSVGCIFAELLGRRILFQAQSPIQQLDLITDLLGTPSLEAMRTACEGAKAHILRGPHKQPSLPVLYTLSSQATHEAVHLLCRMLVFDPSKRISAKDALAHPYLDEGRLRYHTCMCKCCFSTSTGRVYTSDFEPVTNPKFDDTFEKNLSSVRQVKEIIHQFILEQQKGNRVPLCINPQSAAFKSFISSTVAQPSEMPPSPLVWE

SIK = molecular target: T7, SIK (Homo sapiens, UniProt P57059)
T7 construct: purchased Eurofins DiscoverX KINOMEscan
T7 sequence (P57059 whole entry): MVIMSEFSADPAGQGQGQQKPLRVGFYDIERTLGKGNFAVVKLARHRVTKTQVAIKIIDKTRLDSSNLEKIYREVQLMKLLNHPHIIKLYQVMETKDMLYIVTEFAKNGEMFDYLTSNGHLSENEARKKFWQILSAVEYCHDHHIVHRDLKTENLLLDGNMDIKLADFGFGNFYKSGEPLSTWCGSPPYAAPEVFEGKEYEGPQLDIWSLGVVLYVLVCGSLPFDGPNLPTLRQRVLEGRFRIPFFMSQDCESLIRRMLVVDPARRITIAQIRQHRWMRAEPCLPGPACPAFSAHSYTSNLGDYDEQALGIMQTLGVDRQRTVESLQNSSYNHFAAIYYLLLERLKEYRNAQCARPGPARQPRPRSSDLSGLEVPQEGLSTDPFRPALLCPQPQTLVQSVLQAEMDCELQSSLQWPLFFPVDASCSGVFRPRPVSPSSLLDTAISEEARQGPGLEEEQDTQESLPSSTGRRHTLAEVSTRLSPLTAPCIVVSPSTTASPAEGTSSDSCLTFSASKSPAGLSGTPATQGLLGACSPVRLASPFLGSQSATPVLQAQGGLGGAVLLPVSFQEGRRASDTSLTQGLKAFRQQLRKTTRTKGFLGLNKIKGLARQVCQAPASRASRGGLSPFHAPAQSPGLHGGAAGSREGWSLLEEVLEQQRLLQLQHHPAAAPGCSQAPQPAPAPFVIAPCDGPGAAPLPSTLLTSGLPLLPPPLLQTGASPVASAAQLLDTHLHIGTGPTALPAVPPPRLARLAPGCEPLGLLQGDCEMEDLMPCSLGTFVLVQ

FRK = molecular target: T8, FRK (Homo sapiens, UniProt P42685)
T8 construct: purchased Eurofins DiscoverX KINOMEscan
T8 sequence (P42685 whole entry): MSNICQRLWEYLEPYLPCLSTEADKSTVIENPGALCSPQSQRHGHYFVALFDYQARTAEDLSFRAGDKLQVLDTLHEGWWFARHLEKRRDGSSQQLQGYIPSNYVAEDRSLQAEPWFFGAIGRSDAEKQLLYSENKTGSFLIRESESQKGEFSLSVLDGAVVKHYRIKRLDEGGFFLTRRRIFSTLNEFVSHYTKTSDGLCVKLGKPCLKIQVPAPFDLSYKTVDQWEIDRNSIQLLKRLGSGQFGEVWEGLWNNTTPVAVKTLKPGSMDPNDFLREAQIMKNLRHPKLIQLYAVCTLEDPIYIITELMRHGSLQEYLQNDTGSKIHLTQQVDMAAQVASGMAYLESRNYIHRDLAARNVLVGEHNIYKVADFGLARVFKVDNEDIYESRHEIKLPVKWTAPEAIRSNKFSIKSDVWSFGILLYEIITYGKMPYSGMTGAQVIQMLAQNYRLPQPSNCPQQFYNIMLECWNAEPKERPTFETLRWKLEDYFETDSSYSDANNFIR

PAK3 = molecular target: T9, PAK3 (Homo sapiens, UniProt O75914)
T9 construct: purchased Eurofins DiscoverX KINOMEscan
T9 sequence (O75914 whole entry): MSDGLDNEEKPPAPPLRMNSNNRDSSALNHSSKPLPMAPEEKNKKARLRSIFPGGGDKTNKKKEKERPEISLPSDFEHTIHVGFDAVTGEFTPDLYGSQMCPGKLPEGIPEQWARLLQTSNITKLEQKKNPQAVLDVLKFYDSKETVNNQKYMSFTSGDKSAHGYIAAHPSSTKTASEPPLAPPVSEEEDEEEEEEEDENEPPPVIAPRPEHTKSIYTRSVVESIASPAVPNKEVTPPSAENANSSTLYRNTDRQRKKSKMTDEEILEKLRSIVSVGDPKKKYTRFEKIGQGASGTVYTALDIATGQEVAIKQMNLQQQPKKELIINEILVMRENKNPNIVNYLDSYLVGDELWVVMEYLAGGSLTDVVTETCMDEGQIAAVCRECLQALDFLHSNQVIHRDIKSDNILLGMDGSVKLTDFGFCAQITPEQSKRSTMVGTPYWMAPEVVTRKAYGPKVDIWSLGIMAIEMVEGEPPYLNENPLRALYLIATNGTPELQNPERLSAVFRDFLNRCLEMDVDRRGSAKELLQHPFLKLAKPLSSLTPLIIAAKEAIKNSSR

T1 sequence (P27448 whole entry): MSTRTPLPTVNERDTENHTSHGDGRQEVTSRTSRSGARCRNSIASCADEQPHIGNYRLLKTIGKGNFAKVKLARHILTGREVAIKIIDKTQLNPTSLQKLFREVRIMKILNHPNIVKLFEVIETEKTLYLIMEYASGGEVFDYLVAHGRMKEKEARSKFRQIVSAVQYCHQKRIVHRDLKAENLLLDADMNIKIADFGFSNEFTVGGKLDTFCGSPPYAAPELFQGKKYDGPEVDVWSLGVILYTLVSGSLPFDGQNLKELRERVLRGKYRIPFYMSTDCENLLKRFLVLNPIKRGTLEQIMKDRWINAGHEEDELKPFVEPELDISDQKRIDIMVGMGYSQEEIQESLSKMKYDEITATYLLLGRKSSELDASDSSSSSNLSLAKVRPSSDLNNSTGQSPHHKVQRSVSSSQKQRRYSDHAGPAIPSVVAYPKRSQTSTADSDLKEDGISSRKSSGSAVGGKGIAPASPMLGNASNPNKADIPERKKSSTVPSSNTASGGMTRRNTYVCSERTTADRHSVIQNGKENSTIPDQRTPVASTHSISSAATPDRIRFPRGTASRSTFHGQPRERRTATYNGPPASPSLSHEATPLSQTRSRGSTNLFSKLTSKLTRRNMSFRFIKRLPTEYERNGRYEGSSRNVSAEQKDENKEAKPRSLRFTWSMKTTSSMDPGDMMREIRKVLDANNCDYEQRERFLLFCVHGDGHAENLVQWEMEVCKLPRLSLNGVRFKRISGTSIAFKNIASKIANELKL

CN1CCC(CNc2cc(Cl)nn3c(-c4cc5nc(Nc6ccccc6)[nH]c5cc4F)cnc23)CC1 [compound 31, 6-Chloro-3-(6-fluoro-2-(phenylamino)-1H-benzo[d]imidazol-5-yl)-N-((1-methylpiperidin-4-yl)methyl)imidazo[1,2-b]pyridazin-8-amine]
remaining binding at 1 µM (MARK3): 60%
remaining binding at 1 µM (EPHB6): 83%
remaining binding at 1 µM (MST1R): 77%
remaining binding at 1 µM (EGFR(S752-I759del)): 97%
remaining binding at 1 µM (DRAK2): 92%
remaining binding at 1 µM (NLK): 100%
remaining binding at 1 µM (SIK): 91%
remaining binding at 1 µM (FRK): 92%
remaining binding at 1 µM (PAK3): 100%

O=C(CN1CCOCC1)N[C@H]1CC[C@H](Nc2cc(Cl)nn3c(-c4ccc5[nH]ncc5c4)cnc23)CC1 [compound 26]
remaining binding at 1 µM (MARK3): 99%
remaining binding at 1 µM (EPHB6): 89%
remaining binding at 1 µM (MST1R): 64%
remaining binding at 1 µM (EGFR(S752-I759del)): 95%
remaining binding at 1 µM (DRAK2): 61%
remaining binding at 1 µM (NLK): 100%
remaining binding at 1 µM (SIK): 89%
remaining binding at 1 µM (FRK): 96%
remaining binding at 1 µM (PAK3): 81%

Clc1cc(NCC2CC2)c2ncc(-c3ccc4[nH]ncc4c3)n2n1 [compound 2, 6-Chloro-N-(cyclopropylmethyl)-3-(1H-indazol-5-yl)imidazo[1,2-b]pyridazin-8-amine]
remaining binding at 1 µM (MARK3): 100%
remaining binding at 1 µM (EPHB6): 68%
remaining binding at 1 µM (MST1R): 99%
remaining binding at 1 µM (EGFR(S752-I759del)): 94%
remaining binding at 1 µM (DRAK2): 93%
remaining binding at 1 µM (NLK): 70%
remaining binding at 1 µM (SIK): 98%
remaining binding at 1 µM (FRK): 90%
remaining binding at 1 µM (PAK3): 63%
